# Measurements reported in BindingDB's records for doi:10.1016/j.bmcl.2004.02.106 (Merck Research Laboratories, 2004).
# Where “and” joins values, the source holds several entries; their conditions need not be identical. Equal values may be shown once.
# Target: Sphingosine 1-phosphate receptor 5 (Homo sapiens) (UniProt Q9H228)
# Test: Inhibition of [33P]-S1P binding to human Sphingosine 1-phosphate receptor 5 expressed on CHO cell membranes
# Chain of Sphingosine 1-phosphate receptor 5 (Homo sapiens) (Q9H228 whole entry, looked up): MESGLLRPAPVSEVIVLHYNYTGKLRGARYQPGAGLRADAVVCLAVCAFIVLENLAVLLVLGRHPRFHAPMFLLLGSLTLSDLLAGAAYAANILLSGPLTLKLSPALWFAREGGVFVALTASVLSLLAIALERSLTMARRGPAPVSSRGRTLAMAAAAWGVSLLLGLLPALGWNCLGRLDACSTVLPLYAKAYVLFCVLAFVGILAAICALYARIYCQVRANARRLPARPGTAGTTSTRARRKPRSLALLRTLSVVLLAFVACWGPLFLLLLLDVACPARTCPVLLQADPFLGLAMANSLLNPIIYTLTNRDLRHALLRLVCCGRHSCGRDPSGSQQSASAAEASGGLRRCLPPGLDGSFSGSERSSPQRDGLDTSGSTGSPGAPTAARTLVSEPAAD
row,IC50,Compound
1,1000 nM,CCCCCCCCc1ccc(CCC(N)CCC(=O)O)cc1 (centres undefined) [4-Amino-6-(4-octyl-phenyl)-hexanoic acid]
2,4.5 nM and 33 nM,CCCCCCCCc1ccc(CC[C@@H](N)CC(=O)[PH](O)(O)O)cc1
3,27 nM and 73 nM,CCCCCCCCc1ccc(CC[C@H](N)CC(=O)[PH](O)(O)O)cc1
4,240 nM and 76 nM,CCCCCCCCc1ccc(CCC(N)C(=O)C[PH](O)(O)O)cc1 (centres undefined)
